Laboratory results as given in PubChem BioAssay AID1963861 (Molecular Pharmacology Branch, DTP, NCI, 2024).

System: 885724-159-R-J1-PDC KRAS PDC multicell spheroid viability
Assay: Anticancer human tumor 885724-159-R-J1-PDC patient-derived pancreatic adenocarcinoma cell line growth inhibition [KRAS2]
Conditions: for IC50: curve of first compound; for viability, T/C: stronger effect = lower value
Source text: Multicellular complex tumor spheroid response to RAS pathway inhibitors in combination with a targeted agents in patient-derived cell lines with oncogenic KRAS variants from multiple cancer types
A high-throughput screen of multi-cell type tumor spheroids was designed to identify active combinations of targeted small molecules and KRAS pathway inhibitors. Complex spheroids include a stromal component modeled by human endothelial cells (HUVEC) and fibroblasts modeled by human mesenchymal stem cells (MSCs). The concentration ranges selected for each drug and investigational agent were based upon clinically achievable concentrations if the clinical Cmax of the agent was known.
Compounds. The drugs and investigational agents: BI-3406 (NSC825286), BAY-293 (NSC824723), batoprotafib (TNO155; NSC825523), sotorasib (AMG 510; NSC818433), MRTX1257 (NSC819558), elimusertib (BAY 1895344; NSC800525), molibresib (GSK525762; NSC774829), temuterkib (LY3214996; NSC803410), venetoclax (NSC766270), alisertib (NSC759677), olaparib (NSC753686), talazoparib (NSC767125), erdafitinib (NSC781556), ipatasertib (NSC767898), cabozantinib (NSC761068), nintedanib (NSC756659), abemaciclib (NSC768073), docetaxel (NSC628503), trametinib (NSC758246), and sapanisertib (NSC764658) were obtained from the National Cancer Institute (NCI) Developmental Therapeutics Program Chemical Repository. The FDA-approved anticancer drug set is available from the Developmental Therapeutics Program. […] The stock solutions were prepared in dimethyl sulfoxide (DMSO, Sigma-Aldrich, St. Louis, MO, cat. D2650) at 800-fold the tested concentration and stored at -70 degrees C prior to their use. All drugs and investigational agents were tested over a range starting from a high concentration at or near the clinical Cmax and decreasing in half-log increments. If the clinical Cmax for an agent had not been determined, the highest concentration tested was 10 microM.
Cell Culture. All cells were maintained in an incubator at 37 degrees C and 5% CO2 with 95% humidity. The PDC lines were cultured according to standard operating procedures established by the NCI PDMR (https://pdmr.cancer.gov/sops/default.htm). Briefly, all PDCs were thawed and cultured in Matrigel-coated flasks prepared with a working solution of 1X Ham's F-12 nutrient mix, without supplementation (Invitrogen, Waltham, MA, cat. 11765054), 100 U/mL penicillin-streptomycin (Invitrogen, cat. 15140122), and 2.5% Matrigel (Corning Inc., Corning, NY, cat. 354248) for the first three passages. All PDCs were cultured in complete DMEM/F-12 media containing advanced DMEM/F-12 (Invitrogen, cat. 12634028), 4.9% defined fetal bovine serum, heat inactivated (HyClone Laboratories Inc., Logan, UT, cat. SH30070.03HI), 389 ng/mL hydrocortisone (Sigma-Aldrich, cat. H4001), 9.7 ng/mL human EGF recombinant protein (Invitrogen, cat. PHG0313), 23.4 microg/mL adenine (Sigma-Aldrich, cat. A2786), 97.3 U/mL penicillin-streptomycin (Invitrogen, cat. 15140122), 1.9 mM L-glutamine (Invitrogen, cat. 25030081), and 9.7 microM Y-27632 dihydrochloride (Tocris Bioscience, Bristol, United Kingdom, cat. 1254). The PDCs were cultured in complete DMEM/F12 media without 9.7 microM Y-27632 dihydrochloride for at least two passages prior to the screen. The established cell line HOP-62 was cultured in RPMI 1640 medium, HEPES (Invitrogen, cat. 22400105) with 10% defined fetal bovine serum (HyClone Laboratories Inc., cat. SH30070.03) and 2 mM L-glutamine (Invitrogen, cat. 25030081). The pooled donor HUVEC were cultured in endothelial cell growth medium 2 (PromoCell, Heidelberg, Germany, cat. C-22011) and the hMSC were cultured in mesenchymal stem cell growth medium 2 (PromoCell, cat. C-28009). For all experiments, HUVEC and hMSC were used at passages </=5, while the malignant cell lines were used at passages </=15. […]

[1] = second compound 0.1 µM, first compound 0.0316 µM
[2] = second compound 0.1 µM, first compound 0.1 µM
[3] = second compound 0.1 µM, first compound 0.316 µM
[4] = second compound 0.1 µM, first compound 1 µM
[5] = second compound 0.1 µM, first compound 3.16 µM
[6] = second compound 0.1 µM, first compound 10 µM
[7] = second compound 0.316 µM, first compound 0.0316 µM
[8] = second compound 0.316 µM, first compound 0.1 µM
[9] = second compound 0.316 µM, first compound 0.316 µM
[10] = second compound 0.316 µM, first compound 1 µM
[11] = second compound 0.316 µM, first compound 3.16 µM
[12] = second compound 0.316 µM, first compound 10 µM
[13] = second compound 1 µM, first compound 0.0316 µM
[14] = second compound 1 µM, first compound 0.1 µM
[15] = second compound 1 µM, first compound 0.316 µM
[16] = second compound 1 µM, first compound 1 µM
[17] = second compound 1 µM, first compound 3.16 µM
[18] = second compound 1 µM, first compound 10 µM
[19] = second compound 3.16 µM, first compound 0.0316 µM
[20] = second compound 3.16 µM, first compound 0.1 µM
[21] = second compound 3.16 µM, first compound 0.316 µM
[22] = second compound 3.16 µM, first compound 1 µM
[23] = second compound 3.16 µM, first compound 3.16 µM
[24] = second compound 3.16 µM, first compound 10 µM
[25] = second compound 10 µM, first compound 0.0316 µM
[26] = second compound 10 µM, first compound 0.1 µM
[27] = second compound 10 µM, first compound 0.316 µM
[28] = second compound 10 µM, first compound 1 µM
[29] = second compound 10 µM, first compound 3.16 µM
[30] = second compound 10 µM, first compound 10 µM
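Note: spheroids exposed to agents for 7 days before readout.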

SMILES | IC50 (second compound 0.1 µM) [nM] | IC50 (second compound 0.316 µM) [nM] | IC50 (second compound 1 µM) [nM] | IC50 (second compound 3.16 µM) [nM] | IC50 (second compound 10 µM) [nM] | viability, T/C [1] [%] | viability, T/C [2] [%] | viability, T/C [3] [%] | viability, T/C [4] [%] | viability, T/C [5] [%] | viability, T/C [6] [%] | viability, T/C [7] [%] | viability, T/C [8] [%] | viability, T/C [9] [%] | viability, T/C [10] [%] | viability, T/C [11] [%] | viability, T/C [12] [%] | viability, T/C [13] [%] | viability, T/C [14] [%] | viability, T/C [15] [%] | further results
Cn1nccc1Nc1nccc(-c2cc3c(s2)C(C)(C)N(CCN2CCOCC2)C3=O)n1 + CC1OCC2(CCN(c3cnc(Sc4ccnc(N)c4Cl)c(N)n3)CC2)C1N | 330 | 239 | 223 | 191 | 105 | 87.4 | 68.4 | 50.4 | 38.2 | 32.8 | 28.8 | 82.8 | 65.9 | 43.2 | 35.7 | 30.7 | 26.6 | 74.9 | 61.7 | 44.8 | viability, T/C [16]: 33.3%; viability, T/C [17]: 27.2%; viability, T/C [18]: 26%; viability, T/C [19]: 64.7%; viability, T/C [20]: 59.9%; viability, T/C [21]: 42.2%; viability, T/C [22]: 28.8%; viability, T/C [23]: 25.8%; viability, T/C [24]: 24.1%; viability, T/C [25]: 57%; viability, T/C [26]: 51.4%; viability, T/C [27]: 35.9%; viability, T/C [28]: 26.6%; viability, T/C [29]: 22.4%; viability, T/C [30]: 20.6%
COC(=O)c1ccc2c(C(=Nc3ccc(N(C)C(=O)CN4CCN(C)CC4)cc3)c3ccccc3)c(O)[nH]c2c1 + CNCc1ccccc1-c1csc(C(C)Nc2nc(C)nc3cc(OC)c(OC)cc23)c1 | 2550 | 1860 | 2170 | < 31.6 | < 31.6 | 111 | 107 | 117 | 110 | 36.2 | 1.52 | 108 | 110 | 107 | 102 | 6.06 | 0.58 | 106 | 115 | 107 | viability, T/C [16]: 96.7%; viability, T/C [17]: 27.2%; viability, T/C [18]: 1.19%; viability, T/C [19]: 1.59%; viability, T/C [20]: 4.08%; viability, T/C [21]: 1.18%; viability, T/C [22]: 0.58%; viability, T/C [23]: 1.26%; viability, T/C [24]: 0.34%; viability, T/C [25]: 0.26%; viability, T/C [26]: 0.2%; viability, T/C [27]: 0.15%; viability, T/C [28]: 0.33%; viability, T/C [29]: 0.38%; viability, T/C [30]: 0.48%
